Experimental findings from PubChem BioAssay AID1549 (Sanford-Burnham Center for Chemical Genomics, 2009) are described below.

Activity calls are given as the source filed them. No rule for the calls is given here. Bounds are passed on as bounds.

The test addresses Influenza A virus M2 proton channel (A/TW/4845/1999 H1N1). The experiment in a line: NMR binding screen, influenza A virus M2 proton channel, Kd (AID 1549). The note with it: M2 protein.
For the compound `Nc1ccc(-n2cncn2)cc1`, the Kd – broadly, the equilibrium constant for the complex coming apart – was > 4 mM (inactive).
Then `O=C(Nc1nc2ccccc2s1)c1ccc(=O)[nH]n1`, with > 4 mM (inactive); and `Nc1nc(O)c(C2=c3cc(Cl)ccc3=NC2=O)s1`, with > 4 mM (inactive); and `O=C(c1ccc2c(c1)OCO2)N1CCC2(CC1)OCCO2`, with > 4 mM (inactive).
Turning to `CC1SC(=NC(=O)c2ccco2)NC1=O` (centres undefined), the Kd was > 4 mM (inactive).
As for `Nc1nc(-c2ccccc2)ns1`, the Kd was > 4 mM (inactive).
In the case of `COC(=O)c1c(C)cc(OC)cc1O`, the Kd was > 4 mM (inactive).
With `N=C1/C(=C\c2ccco2)C(=O)N=C2SC=NN12`, the Kd was > 4 mM (inactive).
As to `Cc1ncc(C(=O)O)c(-c2ccccc2)n1`, the Kd was > 4 mM (inactive).
As to `O=C(c1cc(Cl)cc(Cl)c1)N1CCOCC1`, the Kd is > 4 mM (inactive).
Take `COc1ccc2c(=O)c(OC)c(-c3ccccc3)oc2c1`: the Kd is > 4 mM (inactive).
With `NC(=O)CSc1ccc2nnc(-c3ccccc3)n2n1`, the Kd was > 4 mM (inactive).
On to `O=C(O)c1cc(=O)[nH]c2ccccc12`, for which the Kd was > 4 mM (inactive).
For `NCc1ccc2c(c1)OCO2` the value was > 4 mM (inactive).
In the case of `COc1ccccc1-c1noc(-c2ccco2)n1`, the Kd was > 4 mM (inactive).
Turning to `CCc1nnc(NC(C)=O)s1`, the Kd is > 4 mM (inactive).
As for `O=C(c1ccco1)N1C(=O)c2cccc3cccc1c23`, the Kd was > 4 mM (inactive).
Turning to `O=C1N=C(N2CCOCC2)S/C1=C\c1cccnc1`, the Kd is > 4 mM (inactive).
For `Nc1ccc(-c2cn3c(n2)SCC3)cc1`, the Kd was > 4 mM (inactive).
For `Cc1n[nH]c(C)c1CC(=O)O` the value was > 4 mM (inactive).
As to `Cc1cc(=O)[nH]c(N2CCCCC2)n1`, the Kd is > 4 mM (inactive).
For `Cc1ccc(CCNc2ccccc2)c[n+]1[O-]` the value was > 4 mM (inactive); for `COc1c(C)c2c(c(O)c1C/C=C(\C)CCC(=O)O)C(=O)OC2`, > 4 mM (inactive).
With `CCOC(=O)c1[nH]cnc1C(=O)OC(C)C`, the Kd was > 4 mM (inactive).
On to `Cc1n[nH]c(=O)nc1N1CCN(c2ccccc2)CC1`, for which the Kd is > 4 mM (inactive).
Then `COC(=O)C[C@@H]1C2(C)C(=O)[C@@H](CC3C2CC[C@]2(C)C3CC(=O)O[C@H]2c2ccoc2)[C@H](OC(C)=O)C1(C)C` (some centres undefined), with > 4 mM (inactive); and `Cc1cc(=O)n2ccc(CN3CCOCC3)c(O)c2n1`, with > 4 mM (inactive); and `O=C(Nc1ccon1)c1ccccc1Cl`, with > 4 mM (inactive).
For `NC(=O)CSc1nnc(-c2cccnc2)o1`, the Kd was > 4 mM (inactive).
On to `Cc1cc(O)c2c(c1)C(=O)c1cccc(O)c1C2=O`, for which the Kd is > 4 mM (inactive).
Then `Cc1nn(-c2ccccc2)nc1C(=O)O`, with > 4 mM (inactive); and `NC(=O)Cn1nc2c3c(cccc3c1=O)-c1ccccc1-2`, with > 4 mM (inactive).
As for `O=C(O)c1cc2ccccc2o1`, the Kd is > 4 mM (inactive).
Consider `Nc1ccc(C(=O)NCC2CCCO2)cc1` (centres undefined), for which the Kd is > 4 mM (inactive).
Regarding `Cc1cc(C(=O)NC2=NCCS2)cs1`, the Kd is > 4 mM (inactive).
For `NCc1ccccc1N1CCCCC1` the value was > 4 mM (inactive); for `Cc1cccn2cc(CNc3ccccc3)nc12`, > 4 mM (inactive).
On to `O=C(Nc1ccc2c(c1)OCCO2)c1ccncc1`, for which the Kd is > 4 mM (inactive).
`Cc1cc(NC(=O)c2cnn3cccnc23)no1`: the Kd is > 4 mM (inactive).
Consider `Cc1cc(=O)c2c(O)cc(O)c(C)c2o1`, for which the Kd was > 4 mM (inactive).
For `COc1ccc(NC(=O)C(N)=O)cc1Cl`, the Kd was > 4 mM (inactive).
`COc1ccc(Cl)cc1NC(=O)C(N)=O`: the Kd was > 4 mM (inactive).
For the compound `Cc1ccnc(NS(=O)(=O)c2cccs2)c1`, the Kd is > 4 mM (inactive).
Take `COc1cc(/C=C2/NC(=S)NC2=O)cc(Cl)c1O`: the Kd is > 4 mM (inactive).
On to `O=C(Nc1ccon1)c1ccc(Cl)s1`, for which the Kd was > 4 mM (inactive).
For `COc1ccc2c(c1)OCC(Cc1ccc(OC)c(O)c1)C2=O` (centres undefined) the value was > 4 mM (inactive); for `CC(=O)c1cnc(Nc2nc(C)c3ccccc3n2)nc1C`, > 4 mM (inactive); for `Cc1oc(-c2ccccc2)cc1C(N)=O`, > 4 mM (inactive).
Then `Cn1cnc([N+](=O)[O-])c1Sc1ncnc2nc[nH]c12`, with > 4 mM (inactive); and `O=C(O)C1Cc2ccccc2O1` (centres undefined), with > 4 mM (inactive); and `CC(=O)O[C@@H]1C[C@@]2(C)[C@H](c3ccoc3)C[C@H]3O[C@]32[C@]2(C)C(=O)C(O)=C3C(C)(C)C(=O)C=C[C@]3(C)C12` (some centres undefined), with > 4 mM (inactive).
`CCSc1nc(N)c(NC(=O)c2ccco2)c(=O)[nH]1`: the Kd is > 4 mM (inactive).
As to `CC(C)CCn1cnc2c1c(=O)n(C)c(=O)n2C`, the Kd is > 4 mM (inactive).
With `COc1ccc2cnn(-c3ccccc3)c(=O)c2c1OC`, the Kd was > 4 mM (inactive).
For `Cc1occc1C(=O)Nc1nnc(C2CCCCC2)s1` the value was > 4 mM (inactive); for `CCOC12NC(=O)CC(=O)N1C(c1ccccc1)=CS2` (centres undefined), > 4 mM (inactive).
Regarding `CCCn1c(C)cc(=O)[nH]c1=O`, the Kd is > 4 mM (inactive).
For the compound `c1ccc(-c2csc(Nc3cccnc3)n2)nc1`, the Kd was > 4 mM (inactive).
For `O=c1c(O)c(-c2ccccc2)oc2cc(O)ccc12` the value was > 4 mM (inactive); for `CC(=O)Nc1ccc(S(=O)(=O)NC(N)=O)cc1`, > 4 mM (inactive).
Take `Cc1ccc(C(=O)Nc2ccncc2)o1`: the Kd is > 4 mM (inactive).
For the compound `CS(=O)(=O)Nc1cc2c3c(c1)CCN3C(=O)CC2`, the Kd is > 4 mM (inactive).
Take `c1cnc(N2CCSCC2)nc1`: the Kd is > 4 mM (inactive).
For `CCc1ccccc1NC(=O)c1ccoc1C`, the Kd was > 4 mM (inactive).
In the case of `COCC(=O)Nc1ccc(F)cc1F`, the Kd was > 4 mM (inactive).
`CNC(=O)COc1cccc2c1CCNC2=O`: the Kd is > 4 mM (inactive).
Consider `Cc1onc(-c2c(F)cccc2Cl)c1C(N)=O`, for which the Kd was > 4 mM (inactive).
For `CCc1ccc(C(=O)N2CCCC2)s1`, the Kd was > 4 mM (inactive).
For `COc1ccc([C@@H]2CC(=O)c3c(O)cc(O[C@@H]4O[C@H](CO[C@H]5O[C@@H](C)[C@H](O)[C@@H](O)[C@H]5O)[C@@H](O)[C@H](O)[C@H]4O)cc3O2)cc1O` the value was > 4 mM (inactive); for `Cc1nc2ccccc2c(=O)n1NC(=O)Nc1ccccc1`, > 4 mM (inactive); for `Cc1c(-c2ccccc2)[n+](=O)c(-c2ccco2)c(C)n1[O-]`, > 4 mM (inactive).
Consider `Cc1c(F)cccc1NS(=O)(=O)c1ccccc1C#N`, for which the Kd is > 4 mM (inactive).
Turning to `Clc1ccc(SCCn2cncn2)cc1`, the Kd is > 4 mM (inactive).
With `Cn1c(=O)n(C)c2cc(C(N)=O)ccc21`, the Kd is > 4 mM (inactive).
For the compound `Cc1ncoc1C(=O)Nc1ccccc1C(N)=O`, the Kd was > 4 mM (inactive).
Turning to `Nc1ncnc2nc(SCCN3CCCCC3)[nH]c12`, the Kd is > 4 mM (inactive).
As for `NS(=O)(=O)c1ccc(N=C2NC(=O)CS2)cc1`, the Kd was > 4 mM (inactive).
As to `O=c1/c(=C/c2ccccc2F)sc2ncnn12`, the Kd is > 4 mM (inactive).
With `Cc1cc(C)cc(C(=O)N2CCC(C(N)=O)CC2)c1`, the Kd is > 4 mM (inactive).
With `O=C(O)c1ccc2ncccc2c1`, the Kd is > 4 mM (inactive).
For `O=C(O)c1ccc(CN2CCOCC2)cc1` the value was > 4 mM (inactive).
As for `CC(Sc1ncn[nH]1)C(=O)O` (centres undefined), the Kd was > 4 mM (inactive).
With `NC(Cn1ccc(=O)c(O)c1)C(=O)O` (centres undefined), the Kd is > 4 mM (inactive).
Take `Nc1ccc2c(c1)OCO2`: the Kd is > 4 mM (inactive).
Take `CC(=O)O[C@H]1C[C@@H](OC(C)=O)C(C)(C)C2C[C@@H](O)[C@]3(C)C(CC[C@@]4(C)[C@H](c5ccoc5)OC(=O)[C@H]5O[C@]543)[C@]21C` (some centres undefined): the Kd was > 4 mM (inactive).
Then `CC(=O)N1CCN(c2ccc(O)cc2)CC1`, with > 4 mM (inactive).
For `CC(=O)c1c(C)nc(-c2ccc(F)cc2)n1O` the value was > 4 mM (inactive); for `Cc1nc(SCC#N)c2c(C)c(C)sc2n1`, > 4 mM (inactive).
Then `COc1ccc(-c2cn[nH]c2N)c(OC)c1`, with > 4 mM (inactive); and `CC1(C)N=C2C(=[N+]1[O-])CCC/C2=N\O`, with > 4 mM (inactive); and `Cc1[nH]c2ccccc2c1Cc1n[nH]c(=S)n1C`, with > 4 mM (inactive).
For `N#Cc1cnc(N2CCCCC2)nc1N`, the Kd is > 4 mM (inactive).
As to `O=C(O)c1ccc(NCc2cccnc2)cc1`, the Kd was > 4 mM (inactive).
As to `CNC(=O)C(=O)Nc1cccc(Cl)c1`, the Kd is > 4 mM (inactive).
With `Cc1cc(C(=O)NCc2cccs2)cs1`, the Kd is > 4 mM (inactive).
With `N=C1/C(=C\c2ccccc2)C(=O)N=C2SC=NN12`, the Kd was > 4 mM (inactive).
For `O=C(c1ccco1)N1CCN(Cc2cccc(F)c2)CC1`, the Kd is > 4 mM (inactive).
In the case of `COc1ccccc1NC(=O)C1CCCCC1`, the Kd is > 4 mM (inactive).
For the compound `C=CC1=C(C)/C(=C/c2[nH]c(Cc3[nH]c(/C=C4\NC(=O)C(C)=C4C=C)c(C)c3CCC(=O)O)c(CCC(=O)O)c2C)NC1=O`, the Kd was > 4 mM (inactive).
For the compound `O=Cc1c(N2CCOCC2)nc2ccccn2c1=O`, the Kd is > 4 mM (inactive).
For the compound `CC(=O)NC(=S)Nc1ccc(N(C)C(C)=O)cc1`, the Kd is > 4 mM (inactive).
As to `O=C(O)CCNc1n[nH]c(=O)[nH]c1=O`, the Kd was > 4 mM (inactive).
Turning to `Nc1ccc2c(c1)CCC2=O`, the Kd is > 4 mM (inactive).
Turning to `O=C(NC1CSCC1O)c1ccccc1` (centres undefined), the Kd was > 4 mM (inactive).
